Data from US20230233500A1, “Gasdermin D (GSDMD) Succination for the Treatment of Inflammatory Disease” (University of Massachusetts, priority 2020, published 2023).
Structures can show the parent of a compound that is named as a salt.

What was measured:
[1] = biological target: T1, m.GSDMD (Mus musculus, UniProt Q9D8T2); test: In vitro succination reaction with LC-MS/MS peptide mapping; type: binding; conditions: recombinant m.GSDMD
T1 sequence (Q9D8T2 1-487): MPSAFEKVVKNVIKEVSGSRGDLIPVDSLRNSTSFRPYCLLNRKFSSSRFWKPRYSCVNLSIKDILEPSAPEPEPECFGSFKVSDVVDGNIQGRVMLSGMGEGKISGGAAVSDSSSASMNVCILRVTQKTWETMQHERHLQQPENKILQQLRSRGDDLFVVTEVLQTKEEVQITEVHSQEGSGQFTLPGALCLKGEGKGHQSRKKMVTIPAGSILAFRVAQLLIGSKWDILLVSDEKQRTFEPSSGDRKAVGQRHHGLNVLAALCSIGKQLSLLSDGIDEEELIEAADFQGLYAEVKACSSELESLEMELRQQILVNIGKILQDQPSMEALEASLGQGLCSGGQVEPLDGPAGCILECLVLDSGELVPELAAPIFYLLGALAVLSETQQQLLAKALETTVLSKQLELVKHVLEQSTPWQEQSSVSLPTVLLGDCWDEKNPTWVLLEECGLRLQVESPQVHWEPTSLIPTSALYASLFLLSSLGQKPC

[2] = system: GSDMD-deficient THP1 cells; test: Kinetic cell death in GSDMD-/- THP1 cells; type: cell-based, human
Source text: FIGS. 3A-J. Fumarate targets GSDMD and Gasdermin E (GSDME). Kinetic cell death of WT and Gsdmd-BMDMs (A) or WT/GSDMD^-/- THP1 cells (B) treated as indicated. LDH and IL-1β release from WT and Gsdmd^-/- BMDMs (C-D). Immunoblot of GSDMD and GSDME in native and reduced cell lysates from BMDMs (E). Immunoblot of GSDME in streptavidin pulldown from clicked lysates (F). Representative Mass spectra of succinated GSDME (G-H). Immunoblot analysis of GSDMD and GSDME from WT and […]^-/- BMDMs (I). A, B representative of three independent experiments. C, D, I pooled data from three independent experiments. E, F, J representative images from 3 independent experiments. ***, P<0.0001, […] (Two-way ANOVA). Error bars show means±SEM. Cells were plated, treated and incubated in phenol red free medium. Following treatment medium was collected and assessed for LDH release using the CytoTox96 non-radioactive cytotoxicity assay (Promega) as per manufacturer's instructions. Kinetic cell death assays were performed using SytoxOrange and the Biotek Cytation5.

[3] = biological target: T2, GSDMD (Mus musculus, UniProt Q9D8T2); test: MMF-Yne click chemistry labeling and streptavidin pulldown in BMDM lysates; type: binding
T2 construct: We also immunoprecipitated GSDMD from fumarate treated BMDMs; endogenous in cells; host or cells: primary mouse BMDMs
T2 sequence (Q9D8T2 1-487): T1 sequence (Q9D8T2 1-487)
Procedure: FIG. 10. Illustrative schematic of click-chemistry based proteomics. Schematic representation of MMF-Yne proteomics. Primary WT BMDMs were treated with LPS for 2 hrs, MMF-Yne for 1 hour and nigericin (10 μM) for 1 hour. Lysates were subsequently Cu2+ clicked using a biotin-azide and streptavidin beads for pulldown of MMF-Yne interacting proteins. Streptavidin beads were digested using trypsin, reduced and alkylated and subjected to mass spec analysis.
Cells treated with or without the MMF-Alkyne probe were lysed and quantified by protein DC assay. Proteome samples (2 mg/ml) were incubated with TCEP, TBTA ligand, copper sulphate and Biotin Azide for 1 hour at room temperature with vortexing every 15 minutes. Precipitated proteins were centrifuged for 5 minutes at 4,600 g. Protein pellets were washed twice with ice cold methanol and sonicated in 1.2% SDS. Samples were heated at 95° C. for 5 minutes and diluted to a final volume of […] with PBS (0.2% SDS). An aliquot of the post-clicked lysate was retained and the remainder was incubated with streptavidin beads on a rotator overnight at 4 C. Samples were rotated at room temperature for 2 hours to resolubilize the SDS. Beads were washed five times with 0.2% SDS/PBS and placed on a rotator for 10 minutes in between washes. Beads were washed with ultra-pure water a further 3 times. […]

[4] = system: LPS septic shock in WT mice; test: LPS septic shock model; type: in vivo, mouse
Procedure: FIGS. 1A-L. Fumarate inhibits pyroptosis. Bone marrow-derived macrophages (BMDMs) were treated as indicated and LDH, IL-1β or TNF-α measured by ELISA (A-C), GSDMD/β-actin by immunoblotting (D) or permeabilization of cells to SYTOX orange (E-F). GSDMD oligomerization in native and reduced cell lysates treated as above (G). Timecourse of permeabilization to SYTOX orange or GSDMD-N formation in cells treated as indicated (H-I). Survival rates of WT mice after 50 mg/kg of LPS (n−10) or LPS+fumarate (n=9) (J). Levels of IL-1β or TNF-α from serum of WT mice at 5 hours post-intraperitoneal injection with 5 mg/kg LPS (n=6) or control PBS (n=3) (K, L). A, B, C, I and are pooled from three independent experiments. D, E, F, G, H and I are representative from three independent experiments. J, K, L data points indicate individual mice. *, P<0.05, **, P<0.01; ***, P<0.001; ****, P<0.0001) (J, Mantel Cox survival analysis; A-C, K Two-way ANOVA). Error bars show means±SEM.
FIGS. 8A-B. Fumarate inhibits pyroptosis in vivo. (A-B) LC/MS Fumarate quantification in splenocytes (A) and IL-1 ELISA analysis (B) in serum from WT C57/BL6 mice administered FHIN2 (50 mg/kg) by IP injection followed by LPS (10 mg/kg) by IP injection for 5 hours. Data points indicative of individual mice. **, P<0.01 (Two-way ANOVA). Error bars show means±SEM.
Conditioned media or serum was collected as indicated and IL-1β or TNF-α, were quantified by sandwich ELISA (R&D Systems).
Mice aged 8-12 weeks were administered LPS 5 mg/kg by intraperitoneal injection. Serum was collected after 5 h for ELISA analysis. For survival studies, mice were administered LPS 50 mg/kg intraperitoneally and monitored every 12 h for up to 96 h.

## COC(=O)/C=C/C(=O)OC [Fumarate, Dimethyl fumarate]
[1]
  In vitro cysteine succination sites: same cysteines
[2]
  cell death: inhibited cell death
[3]; streptavidin pulldown from clicked lysates
  MMF-Yne labeling of GSDMD in presence of competitor: blocked
[3]; streptavidin-IR dye immunoblot
  MMF-Yne signal in pyroptotic lysates in presence of unlabeled competitor: reduced
[4]; 5 hours after ip LPS 5 mg/kg
  serum IL-1β levels: reduced
  serum TNF-α levels: not
[4]; lethal dose LPS 50 mg/kg, single dose of fumarate
  survival: increased survival
